Patent publication US12091425B2 (AMGEN INC., priority 2016, dated 2024)

Target: T1, Mcl-1/Bim interaction, recombinant human Mcl-1 (171-327) (Homo sapiens, UniProt Q07820)
T1 construct: made in house
Experiment: Cell free Mcl-1: Bim Affinity Assay (Mcl-1 HTRF)
Type: binding
In short: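 TR-FRET competition assay with biotinylated human Bim peptide (residues 51-76); reaction plates incubated overnight before reading. IC50 values came from duplicate data fitted to a four-parameter sigmoidal competition curve.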

[1] = TR-FRET, 0.1 nM Mcl-1 (171-327), 0.05 nM biotin-Bim (51-76)
[2] = cell free Mcl-1:Bim TR-FRET, recombinant human Mcl-1 (171-327)

T1 sequence (Q07820 171-327): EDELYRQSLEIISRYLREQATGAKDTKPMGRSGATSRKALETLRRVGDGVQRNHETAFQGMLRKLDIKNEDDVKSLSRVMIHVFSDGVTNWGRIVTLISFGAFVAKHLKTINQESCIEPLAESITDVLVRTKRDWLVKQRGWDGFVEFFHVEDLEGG

Row | SMILES | IC50 [1] | IC50 [2]
1 | C/C=C/C1CC(=O)[C@@H]2CC[C@H]2CN2C[C@@]3(CCCc4cc(Cl)ccc43)COc3ccc(cc32)C(=O)NS(=O)(=O)[C@H](C)[C@@H](C)C1 (stereo in doubt) [Example 350, (1S,3′R,6′R,9′R,11′S,12′R)-6-chloro-11′,12′-dimethyl-9′-((1E)-1-propen-1-yl)-3,4-dihydro-2H,7′H,15′H-spiro[naphthalene-1,22′-[20]oxa[13]thia[1,14]diazatetracyclo[14.7.2.0^3,6.0^19,24]pentacosa [16,18,24]triene]-7′,15′-dione 13′,13′-dioxide] | 3.73 nM | 
2 | C/C=C/C1CC(=O)[C@@H]2CC[C@H]2CN2C[C@@]3(CCCc4cc(Cl)ccc43)COc3ccc(cc32)C(=O)NS(=O)(=O)[C@H](C)[C@@H](C)C1 (stereo in doubt) [Example 353, (1S,3′R,6′R,9′S,11′S,12′R)-6-chloro-11′,12′-dimethyl-9′-((1E)-1-propen-1-yl)-3,4-dihydro-2H,7′H,15′H-spiro[naphthalene-1,22′-[20]oxa[13]thia[1,14]diazatetracyclo[14.7.2.0^3,6.0^19,24]pentacosa [16,18,24]triene]-7′,15′-dione 13′,13′-dioxide] | 9.09 nM | 
3 | O=C1NS(=O)(=O)CCOCCC[C@@H]2CC[C@H]2CN2C[C@@]3(CCCc4ccccc43)COc3ccc1cc32 (stereo in doubt) [Example 824, (3S,6R,22S)-3′,4′-dihydro-2′H,15H-spiro[10,20-dioxa-13-thia-1,14-diazatetracyclo[14.7.2.0^3,6.^019,24]pentacosa-16,18,24-triene-22,1′-naphthalen]-15-one 13,13-dioxide] |  | 20.1 nM
4 | CC[C@@H]1CC/C=C/C(NC(C)=O)[C@@H]2CC[C@H]2CN2C[C@@]3(CCCc4cc(Cl)ccc43)COc3ccc(cc32)C(=O)NS1(=O)=O (stereo in doubt) [Example 1076, N-((1S,3′R,6′R,7′R,8′E,12′R)-6-chloro-12′-ethyl-13′,13′-dioxido-15′-oxo-3,4-dihydro-2H-spiro[naphthalene-1,22′-[20]oxa[13]thia[1,14]diazatetracyclo[14.7.2.0^3,6.0^19,24]pentacosa[8,16,18,24]tetraen]-7′-yl)acetamide] | 1.82 nM | 
5 | COC[C@H]1C/C=C/[C@H](OC)[C@@H]2CC[C@H]2CN2C[C@@]3(CCCc4cc(Cl)ccc43)COc3ccc(cc32)C(=O)NS(=O)(=O)[C@@H]1C [Example 2, (1S,3′R,6′R,7′S,8′E,11′R,12′R)-6-chloro-7′-methoxy-11′-(methoxymethyl)-12′-methyl-3,4-dihydro-2H,15′H-spiro[naphthalene-1,22′-[20]oxa[13]thia[1,14]diazatetracyclo[14.7.2.0^3,6.0^19,24]pentacosa [8,16,18,24]tetraen]-15′-one 13′,13′-dioxide] | 6.85 nM | 
6 | CCN1CC/C=C/[C@H](OCC(=O)O)[C@@H]2CC[C@H]2CN2C[C@@]3(CCCc4cc(Cl)ccc43)COc3ccc(cc32)C(=O)NS1(=O)=O [Example 44, (((1S,3′R,6′R,7′S,8′E)-6-chloro-12′-ethyl-13′,13′-dioxido-15′-oxo-3,4-dihydro-2H-spiro[naphthalene-1,22′-[20]oxa[13]thia[1,12,14]triazatetracyclo[14.7.2.0^3,6.0^19,24]pentacosa[8,16,18,24]tetraen]-7′-yl)oxy)acetic Acid] | 0.115 nM | 
7 | CCN1CC/C=C/[C@H](OC)[C@@H]2CC[C@H]2CN2C[C@@]3(CCCc4cc(Cl)ccc43)COc3ccc(cc32)C(=O)NS1(=O)=O [Example 45] | 2.3 nM | 
8 | CCN1CCCC[C@H](O)[C@@H]2CC[C@H]2CN2C[C@@]3(CCCc4cc(Cl)ccc43)COc3ccc(cc32)C(=O)NS1(=O)=O [Example 86, (1S,3′R,6′R,7′S)-6-chloro-12′-ethyl-7′-hydroxy-3,4-dihydro-2H,15′H-spiro[naphthalene-1,22′-[20]oxa[13]thia[1,12,14]triazatetracyclo[14.7.2.0^3,6.0^19,24]pentacosa[16,18,24]trien]-15′-one 13′,13′-dioxide] | 4.04 nM | 
9 | O=C1NS(=O)(=O)[C@@H]2CC[C@H]2CCC[C@H](O)[C@@H]2CC[C@H]2CN2C[C@@]3(CCCc4cc(Cl)ccc43)COc3ccc1cc32 [Example 91, (1S,3′R,6′R,7′S,11′R,14′R)-6-chloro-7′-hydroxy-3,4-dihydro-2H,17′H-spiro[naphthalene-1,24′-[22]oxa[15]thia[1,16]diazapentacyclo[16.7.2.0^3,6.0^11,14.0^21,26]heptacosa[18,20,26]trien]-17′-one 15′,15′-dioxide] | 3.06 nM | 
10 | O=C1NS(=O)(=O)[C@H]2CC[C@@H]2CCC[C@H](O)[C@@H]2CC[C@H]2CN2C[C@@]3(CCCc4cc(Cl)ccc43)COc3ccc1cc32 [Example 92, (1S,3′R,6′R,7′S,11′S,14′S)-6-chloro-7′-hydroxy-3,4-dihydro-2H,17′H-spiro[naphthalene-1,24′-[22]oxa[15]thia[1,16]diazapentacyclo[16.7.2.0^3,6.0^11,14.0^21,26]heptacosa[18,20,26]trien]-17′-one 15′,15′-dioxide] | 0.781 nM | 

Results, then the molecule that gave them:

Row | IC50 [1] | IC50 [2] | SMILES
11 |  | 10.5 nM | O=C1NS(=O)(=O)CCOC/C=C/C2CCC2CN2C[C@@]3(CCCc4cc(Cl)ccc43)COc3ccc1cc32 (stereo in doubt) [Example 826, (3S,6R,7E,22S)-6′-chloro-3′,4′-dihydro-2′H,15H-spiro[10,20-dioxa-13-thia-1,14-diazatetracyclo[14.7.2.0^3,6.0^19,24]pentacosa-7,16,18,24-tetraene-22,1′-naphthalen]-15-one 13,13-dioxide]
12 |  | 3.54 nM | O=C1NS(=O)(=O)CCOCCCC2CCC2CN2C[C@@]3(CCCc4cc(Cl)ccc43)COc3ccc1cc32 (stereo in doubt) [Example 827, (3S,6R,22S)-6′-chloro-3′,4′-dihydro-2′H,15H-spiro[10,20-dioxa-13-thia-1,14-diazatetracyclo[14.7.2.0^3,6.0^19,24]pentacosa-16,18,24-triene-22,1′-naphthalen]-15-one 13,13-dioxide]
13 | 31.7 nM |  | COc1ccc(CN2CCCCS(=O)(=O)NC(=O)c3ccc4c(c3)N(C[C@@H]3CC[C@H]3C2=O)C[C@@]2(CCCc3cc(Cl)ccc32)CO4)cc1 [Example 96, (1S,3′R,6′R)-6-chloro-8′-(4-methoxybenzyl)-3,4-dihydro-2H,7′H,15′H-spiro[naphthalene-1,22′-[20]oxa[13]thia[1,8,14]triazatetracyclo[14.7.2.0^3,6.0^19,24]pentacosa[16,18,24]trien]-7′,15′-dione 13′,13′-dioxide]
14 | 15.5 nM |  | O=C1NS(=O)(=O)CCCCNC(=O)[C@@H]2CC[C@H]2CN2C[C@@]3(CCCc4cc(Cl)ccc43)COc3ccc1cc32 [Example 98, (1S,3′R,6′R)-6-chloro-3,4-dihydro-2H,7′H,15′H-spiro[naphthalene-1,22′-[20]oxa[13]thia[1,8,14]triazatetracyclo[14.7.2.0^3,6.0^19,24]pentacosa[16,18,24]triene]-7′,15′-dione 13′,13′-dioxide]
15 | 20.7 nM |  | CN1CCCCS(=O)(=O)NC(=O)c2ccc3c(c2)N(C[C@@H]2CC[C@H]2C1=O)C[C@@]1(CCCc2cc(Cl)ccc21)CO3 [Example 99, (1S,3′R,6′R)-6-chloro-8′-methyl-3,4-dihydro-2H,7′H,15′H-spiro[naphthalene-1,22′-[20]oxa[13]thia[1,8,14]triazatetracyclo[14.7.2.0^3,6.0^19,24]pentacosa[16,18,24]trien]-7′,15′-dione 13′,13′-dioxide]
